{"source": "paper PMC12162926", "about": "“A novel strategy for identifying hepatotoxic constituents in traditional Chinese medicine using dose-normalized intracellular accumulation as a cytotoxicity indicator: a case study of Jinlingzi San” (Frontiers in Pharmacology, 2025)", "key": {"[1]": {"system": "L-02 cells", "assay": "Intracellular accumulation in L-02 cells by LC–MS/MS", "type": "in vitro ADME, human", "settings": "for Intracellular concentration: L-02, JLZS extracts 6.5 mg/mL, n = 6"}, "[2]": {"system": "L-02 cells", "assay": "Cell growth inhibition assay (CCK-8)", "type": "cell-based, human", "settings": "L-02, 24 h exposure, single compounds"}, "[3]": {"system": "L-02 cells", "assay": "Intracellular identification of L-02 cell-uptake components by LC–MS/MS", "type": "in vitro ADME, human", "settings": "L-02 exposed to JLZS-containing medium 6.5 mg/mL for 2 h", "protocol": "The powder of 25 g FT and 25 g RC was evenly blended and then refluxed twice with six-fold 50% ethanol (1: 6, w/v) for 1 h; the collected filtrate was evaporated to dryness and further dissolved in DMSO, after filtering using the 0.22-µm cellulose acetate membrane. JLZS-containing medium (6.5 mg/mL) was freshly prepared by diluting the filtrate with RPMI-1640. Likewise, RC-containing medium was freshly prepared in the same method independently.\nL-02 cells were seeded on 9-cm-diameter cell culture plates; after ∼80% confluent, the cultured cells were incubated with 6.5 mg/mL JLZS-containing medium. After 2-h exposure, L-02 cells were quickly washed free of culture medium with cold PBS (−) twice and harvested with 1 mL of 0.25% trypsin-EDTA for cell isolation. The cell suspension (∼5 × 10^6 cells) was spun down, and the cells were further washed twice in cold PBS (−). Then, 200 µL of methanol was used to lyse the collected cells with vortex mixing for 1 min. The cell lysates were centrifuged at 12,000 rpm for 4 min, and 10 μL of the centrifugal supernatant was injected into the LC–MS/MS system for identified analysis.\nThe LC–MS/MS system consisted of a Thermo TSQ Quantum Ultra triple-quadrupole mass spectrometer equipped with an electrospray ionization source (San Jose, CA, United States). LCquan quantitation software (version 2.5.6, Thermo Fisher Scientific, Waltham, MA, USA) was used to control the LC–MS/MS system for data acquisition and analysis. Analytes and IS separation were conducted using a Waters XTerra® MS C18 column (3.0 mm × 50 mm, 5 µm) maintained at 20 °C. By injecting 5 µL samples with a flow rate of 0.2 mL/min, chromatographic separation was achieved using a mobile phase of 0.1% formic acid–water (A) and methanol (B) via gradient elution, 0.0–2.0 min, 35%–50% B; 2.0–2.1 min, 50%–55% B; 2.1–2.5 min, 55%–60% B; 2.5–14.0 min, 60% B. The analytes and IS were detected in the ESI source by polarity switching from positive for 0.0–8.0 min to negative-ion modes for 8.5–14.0 min in a single run with multiple reaction monitoring (MRM)."}, "[4]": {"set-up": "method as in Gu et al., 2021", "settings": "pharmacokinetic level, JLZS vs single herb; ref Gu et al., 2021; cited from earlier work"}, "[5]": {"assay": "Stability of analytes in cell lysates (LC–MS/MS method validation)", "type": "physicochemical", "settings": "n=3; for Post-preparation stability RE%: 4 ℃, 24 h at autosampler; for Short-term stability RE%: 12 h at room temperature; for Long-term stability RE%: -80℃ for a month; for Freeze-thaw stability RE%: three freeze-thaw", "protocol": "The stability of seven analytes including short-term stability (12 h at room temperature), post-preparation stability at 4 ℃ (24 h at autosampler), freeze-thaw stability (three freeze-thaw stability) and long-term stability (-80℃ for a month) was tested by analyzing three replicates at low and high QC levels during various sample storage and handling process."}}}
{"molecule": "CC(=O)O[C@@H]1C[C@H](O)[C@@]23CO[C@@H](O)[C@]1(C)[C@@H]2C[C@@H](O)[C@]1(C)[C@@H]3C(=O)[C@H](OC(C)=O)[C@@]2(C)[C@H](c3ccoc3)C[C@H]3O[C@]321", "note": "[TSN, toosendanin]", "values": [{"measurement": "Intracellular concentration", "setting": "[1]; time 0.25 h", "result": "10.4 ± 1.1", "unit": "ng/mL"}, {"measurement": "Intracellular concentration", "setting": "[1]; time 0.5 h", "result": "13.6 ± 4.0", "unit": "ng/mL"}, {"measurement": "Intracellular concentration", "setting": "[1]; time 1 h", "result": "38.5 ± 10.2", "unit": "ng/mL"}, {"measurement": "Intracellular concentration", "setting": "[1]; time 1.5 h", "result": "32.8 ± 13.6", "unit": "ng/mL"}, {"measurement": "Intracellular concentration", "setting": "[1]; time 2 h", "result": "20.1 ± 2.8", "unit": "ng/mL"}, {"measurement": "Intracellular concentration", "setting": "[1]; time 3 h", "result": "23.8 ± 4.4", "unit": "ng/mL"}, {"measurement": "Intracellular concentration", "setting": "[1]; time 5 h", "result": "26.4 ± 9.2", "unit": "ng/mL"}, {"measurement": "Intracellular concentration", "setting": "[1]; time 8 h", "result": "15.5 ± 3.4", "unit": "ng/mL"}, {"measurement": "exposure time at highest intracellular concentration", "setting": "[1]; L-02 exposed to JLZS 6.5 mg/mL", "result": 1, "unit": "h"}, {"measurement": "IC50 (cell viability)", "setting": "[2]", "result": "not detected IC50 values within the set concentration range"}, {"measurement": "detection in cell lysates", "setting": "[3]", "result": "found in the cell lysates"}, {"measurement": "elimination in the JLZS group compared with the single-herb group", "setting": "[4]", "result": "decreased significantly"}, {"measurement": "Post-preparation stability RE%", "setting": "[5]; high QC level", "result": 0.1, "unit": "%"}, {"measurement": "Post-preparation stability RE%", "setting": "[5]; low QC level", "result": 7.6, "unit": "%"}, {"measurement": "Short-term stability RE%", "setting": "[5]; high QC level", "result": -0.1, "unit": "%"}, {"measurement": "Short-term stability RE%", "setting": "[5]; low QC level", "result": 8.0, "unit": "%"}, {"measurement": "Long-term stability RE%", "setting": "[5]; high QC level", "result": 8.6, "unit": "%"}, {"measurement": "Long-term stability RE%", "setting": "[5]; low QC level", "result": 10.2, "unit": "%"}, {"measurement": "Freeze-thaw stability RE%", "setting": "[5]; high QC level", "result": -4.0, "unit": "%"}, {"measurement": "Freeze-thaw stability RE%", "setting": "[5]; low QC level", "result": 6.2, "unit": "%"}]}
